In ChEMBL document CHEMBL5727650, “Heteroaryl substituted aminopyridine compounds” (2020) one finds IC50 data, which are given here for twelve compounds.

One may read the IC50 as the concentration needed to halve the response being measured.

The target in this experiment is T1, Interleukin-1 receptor-associated kinase 4 (Homo sapiens, UniProt Q9NWZ3).
T1 sequence (Q9NWZ3 whole entry): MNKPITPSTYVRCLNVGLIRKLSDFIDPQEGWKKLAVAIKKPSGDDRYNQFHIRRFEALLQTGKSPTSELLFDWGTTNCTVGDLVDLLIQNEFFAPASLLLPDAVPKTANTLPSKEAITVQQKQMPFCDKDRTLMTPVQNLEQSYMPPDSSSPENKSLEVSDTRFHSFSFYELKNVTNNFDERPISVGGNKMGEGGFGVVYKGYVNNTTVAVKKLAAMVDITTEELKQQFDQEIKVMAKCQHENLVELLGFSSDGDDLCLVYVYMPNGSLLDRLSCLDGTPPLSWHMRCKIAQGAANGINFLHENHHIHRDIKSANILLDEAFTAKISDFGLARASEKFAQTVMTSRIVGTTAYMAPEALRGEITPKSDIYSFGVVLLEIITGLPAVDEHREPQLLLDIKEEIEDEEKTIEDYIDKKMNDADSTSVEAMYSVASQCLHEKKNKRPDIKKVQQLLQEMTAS
Description: IRAK4 Inhibition Assay: The assays were performed in U-bottom 384-well plates. The final assay volume was 30 μL prepared from 15 μL additions of enzyme and substrates (fluoresceinated peptide and ATP) and test compounds in assay buffer (20 mM HEPES pH 7.2, 10 mM MgCl2, 0.015% Brij 35 and 4 mM DTT). The reaction was initiated by the combination of IRAK4 with substrates and test compounds. The reaction mixture was incubated at room temperature for 60 min. and terminated by adding 45 μL of 35 mM EDTA to each sample. The reaction mixture was analyzed on the Caliper LABCHIP® 3000 (Caliper, Hopkinton, Mass.) by electrophoretic separation of the fluorescent substrate and phosphorylated product. Inhibition data were calculated by comparison to no enzyme control reactions for 100% inhibition and vehicle-only reactions for 0% inhibition. The final concentrations of reagents in the assays are ATP, 500 μM; FL-IPTSPITTTYFFFKKK peptide 1.5 μM; IRAK4, 0.6 nM; and DMSO, 1.6%.

Regarding `CC(C)(F)CNc1cc(-c2cnn3cc(C#N)cnc23)ncc1C(=O)NC[C@@H](F)C(C)(C)O`, the IC50 was 12 nM.
In the case of `CC(=O)N[C@H]1CC[C@H](NC(=O)c2cnc(-c3cnn4cc(C#N)cnc34)cc2NC(C)C)CC1`, the 50% inhibitory concentration (IC50) is 15 nM.
The value for `CC(C)(C)Nc1cc(-c2cnc3cc(C#N)cnn23)ncc1C(=O)NC[C@@H](F)C(C)(C)O` was 2 nM; that for `COC(C)(C)[C@H]1CC[C@H](NC(=O)c2cnc(-c3cnc4cc(Cl)cnn34)cc2NC2COC2)CC1` was 7 nM.
As to `CC(C)(O)[C@H](F)CNC(=O)c1cnc(-c2cnn3cc(Cl)cnc23)cc1NC12CC(C1)C2`, the IC50 was 9 nM.
`CC(C)(O)[C@H](F)CNC(=O)c1cnc(-c2cnn3cc(C#N)cnc23)cc1NC1CCC(F)(F)C1O` (some centres not stated): the IC50 was 13 nM.
As for `CCCNc1cc(-c2cnn3cc(Cl)cnc23)ncc1C(=O)NC[C@@H](F)C(C)(C)O`, the IC50 is 5 nM.
The value for `CC(C)(O)[C@H](F)CNC(=O)c1cnc(-c2cnn3cc(C#N)cnc23)cc1NC1CCC1` was 2 nM; that for `CC(C)(O)[C@H](F)CNC(=O)c1cnc(-c2cnn3cc(Cl)cnc23)cc1Nc1ccn(CC(F)F)c1` was 2 nM; that for `CC(C)(O)[C@H](F)CNC(=O)c1cnc(-c2cnn3cc(C#N)cnc23)cc1Nc1ccc(C(N)=O)cc1` was 1 nM.
Under `CC1(Nc2cc(-c3cnc4cc(Cl)cnn34)ncc2C(=O)NC[C@H](F)C(C)(C)O)CC1` stands 2 nM; under `CC(C)(O)[C@H](F)CNC(=O)c1cnc(-c2cnn3cc(C#N)cnc23)cc1Nc1ccn(CC(F)F)c1`, 2 nM.
